Assay results: PubChem BioAssay (NCI)
Where “and” joins values, the source holds several entries; their conditions need not be identical. Identical values can stand only once.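 Where inhibition never reached the appropriate level, the endpoint shown equals the highest concentration tested. Otherwise, values were interpolated linearly from a five-concentration, 48-hour dose response in 96-well plates. GI50: concentration for 50% inhibition of growth. TGI: total growth inhibition.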

Key:
Assay in all cases: inhibition of tumour cell growth, NCI panel, 48 h
[1] = test system: NCI-H460 lung
[2] = test system: M14 melanoma
[3] = test system: DU-145 prostate
[4] = test system: SF-295 CNS
[5] = test system: K-562 leukemia
[6] = test system: BT-549 breast
[7] = test system: COLO 205 colon
[8] = test system: LOX IMVI melanoma
[9] = test system: MCF7 breast
[10] = test system: OVCAR-5 ovarian
[11] = test system: OVCAR-3 ovarian
[12] = test system: SW-620 colon
[13] = test system: SN12C renal
[14] = test system: A498 renal
[15] = test system: SF-268 CNS
[16] = test system: UACC-62 melanoma
[17] = test system: A549 NSCLC
[18] = test system: HL-60(TB) leukemia
[19] = test system: HT29 colon
[20] = test system: RPMI-8226 leukemia
[21] = test system: SNB-19 CNS
[22] = test system: SK-OV-3 ovarian
[23] = test system: HCC-2998 colon
[24] = test system: SK-MEL-2 melanoma
[25] = test system: HCT-15 colon
[26] = test system: HCT-116 colon
[27] = test system: OVCAR-8 ovarian
[28] = test system: HOP-62 NSCLC
[29] = test system: NCI-H522 lung
[30] = test system: ACHN renal
[31] = test system: PC-3 prostate
[32] = test system: HOP-92 NSCLC
[33] = test system: SK-MEL-28 melanoma
[34] = test system: NCI-H23 lung
[35] = test system: OVCAR-4 ovarian
[36] = test system: MOLT-4 leukemia
[37] = test system: SR leukemia
[38] = test system: IGROV1 ovarian
[39] = test system: CCRF-CEM leukemia
[40] = test system: UO-31 renal
[41] = test system: CAKI-1 renal
[42] = test system: HS 578T breast
[43] = test system: EKVX NSCLC
[44] = test system: KM12 colon
[45] = test system: SK-MEL-5 melanoma
[46] = test system: 786-0 renal
[47] = test system: U251 CNS
[48] = test system: NCI-H226 lung
[49] = test system: NCI/ADR-RES ovarian
[50] = test system: UACC-257 melanoma
[51] = test system: TK-10 renal
[52] = test system: SF-539 CNS
[53] = test system: MDA-MB-231 breast
[54] = test system: RXF 393 renal
[55] = test system: SNB-75 CNS
[56] = test system: MDA-MB-435

## N#CC1=C(N)Oc2c(ccc3ccccc23)C1c1ccccc1 (stereo not given)
[1]
  GI50: 0.038 µM
  TGI: 10.8 µM
[2]
  GI50: 0.0348 µM
  TGI: 13.6 µM
[3]
  GI50: 0.0468 µM
  TGI: 12.8 µM
[4]
  GI50: 0.0299 µM
  TGI: 11.6 µM
[5]
  GI50: 0.0322 µM
  TGI: 22.6 µM
[6]
  GI50: 0.0821 µM
  TGI: 3.4 µM
[7]
  GI50: 0.19 µM
  TGI: 1.23 µM
[8]
  GI50: 0.0575 µM
  TGI: 3.25 µM
[9]
  GI50: 0.0393 µM
  TGI: 15.6 µM
[10]
  GI50: 0.172 µM
  TGI: 17.2 µM
[11]
  GI50: 0.0357 µM
  TGI: 2.2 µM
[12]
  GI50: 0.0388 µM
  TGI: 18.6 µM
[13]
  GI50: 0.0793 µM
  TGI: 13.7 µM
[14]
  GI50: 0.0185 µM
  TGI: 0.0809 µM
[15]
  GI50: 0.166 µM
  TGI: 15.7 µM
[16]
  GI50: 0.0567 µM
  TGI: 16 µM
[17]
  GI50: 0.0845 µM
  TGI: 18.3 µM
[18]
  GI50: 0.0295 µM
  TGI: 0.274 µM
[19]
  GI50: 0.146 µM
  TGI: 11.1 µM
[20]
  GI50: 0.0417 µM
  TGI: 15 µM
[21]
  GI50: 0.0579 µM
  TGI: 18.1 µM
[22]
  GI50: 0.0796 µM
  TGI: 19 µM
[23]
  GI50: 0.141 µM
  TGI: 6.67 µM
[24]
  GI50: 0.0517 µM
  TGI: 12.6 µM
[25]
  GI50: 0.0478 µM
  TGI: 10.7 µM
[26]
  GI50: 0.0443 µM
  TGI: 3.73 µM
[27]
  GI50: 0.0551 µM
  TGI: 16.8 µM
[28]
  GI50: 0.0555 µM
  TGI: 18.6 µM
[29]
  GI50: 0.0226 µM
  TGI: 1.7 µM
[30]
  GI50: 0.0681 µM
  TGI: 14.8 µM
[31]
  GI50: 0.0454 µM
  TGI: 16.8 µM
[32]
  GI50: 0.0413 µM
  TGI: 12.9 µM
[33]
  GI50: 0.944 µM
  TGI: 20.5 µM
[34]
  GI50: 0.0648 µM
  TGI: 16.9 µM
[35]
  GI50: 0.063 µM
  TGI: 14.5 µM
[36]
  GI50: 0.0574 µM
  TGI: 16.8 µM
[37]
  GI50: 0.0336 µM
  TGI: 22.4 µM
[38]
  GI50: 0.0654 µM
  TGI: 16.9 µM
[39]
  GI50: 0.0437 µM
  TGI: 41.5 µM
[40]
  GI50: 0.0622 µM
  TGI: 15.2 µM
[41]
  GI50: 0.0283 µM
  TGI: 12.6 µM
[42]
  GI50: 0.0316 µM
  TGI: 21.3 µM
[43]
  GI50: 0.315 µM
  TGI: 20.1 µM
[44]
  GI50: 0.0419 µM
  TGI: 13.5 µM
[45]
  GI50: 0.0346 µM
  TGI: 0.451 µM
[46]
  GI50: 0.0503 µM
  TGI: 13 µM
[47]
  GI50: 0.0454 µM
  TGI: 15.1 µM
[48]
  GI50: 0.463 µM
  TGI: 19.4 µM
[49]
  GI50: 0.0274 µM
  TGI: 1.68 µM
[50]
  GI50: 11.9 µM
  TGI: 29.9 µM
[51]
  GI50: 7.57 µM
  TGI: 27 µM
[52]
  GI50: 0.0311 µM
  TGI: 0.158 µM
[53]
  GI50: 0.099 µM
  TGI: 7.5 µM

## COc1cc(Nc2nc3ccccc3nc2NS(=O)(=O)c2ccc(NC(=O)c3ccc(C)c(OC)c3)cc2)cc(OC)c1
[1]
  TGI: > 100 µM
[2]
  TGI: > 100 µM and 94 µM and > 4.68 µM
[3]
  TGI: > 100 µM
[4]
  GI50: 2.03 µM and 8.73 µM and 1.08 µM
  TGI: 9.85 µM and 33.6 µM and > 5.22 µM
[5]
  GI50: 5.34 µM and 18.7 µM and > 5.29 µM
  TGI: > 100 µM and 46.4 µM and > 10 µM
[6]
  TGI: 20.9 µM and 49.2 µM and > 6.49 µM
[8]
  TGI: > 100 µM
[9]
  TGI: > 100 µM
[10]
  TGI: > 100 µM
[12]
  TGI: > 100 µM
[13]
  TGI: > 100 µM
[15]
  TGI: > 100 µM
[17]
  GI50: 4.38 µM and 13.3 µM and 1.79 µM
  TGI: > 100 µM and 80.4 µM and > 9.12 µM
[18]
  TGI: 38 µM and 52.9 µM and > 8.02 µM
[19]
  TGI: > 100 µM
[20]
  GI50: 3.98 µM and 12.3 µM and 1.96 µM
  TGI: 84.5 µM and 53.8 µM and > 10 µM
[21]
  GI50: 3.14 µM and 19.8 µM and 2.3 µM
  TGI: 31 µM and > 100 µM and > 10 µM
[23]
  TGI: > 100 µM and 37.7 µM and > 8.5 µM
[24]
  TGI: 22.6 µM and 32.8 µM and 3.83 µM
[25]
  GI50: 4.97 µM and 19.9 µM and 2 µM
  TGI: > 100 µM
[26]
  TGI: > 100 µM
[27]
  GI50: 4.19 µM and 20.5 µM and 2.82 µM
  TGI: > 100 µM
[54]
  GI50: 2.8 µM and 7.57 µM and 1.06 µM
  TGI: 14.8 µM and 33.4 µM and > 6.13 µM
[28]
  TGI: 25.9 µM and > 100 µM and > 9.23 µM
[30]
  TGI: 48.7 µM and 62.8 µM and > 10 µM
[31]
  TGI: > 100 µM and 74.9 µM and > 6.71 µM
[34]
  GI50: 2.27 µM and 12.5 µM and 1.33 µM
  TGI: 17.3 µM and 58.9 µM and > 10 µM
[35]
  TGI: > 100 µM
[36]
  GI50: 4.58 µM and 14.4 µM and 2.25 µM
  TGI: 45.7 µM and 43.3 µM and > 10 µM
[37]
  TGI: 51.2 µM and 49.1 µM and > 10 µM
[39]
  TGI: > 100 µM and 71.6 µM and > 10 µM
[40]
  TGI: 9.07 µM and 46.1 µM and > 5.04 µM
[55]
  GI50: 1.39 µM and 1.51 µM and 0.302 µM
  TGI: 13.3 µM and 20 µM and 2.75 µM
[41]
  TGI: > 100 µM and 73.8 µM and > 6.67 µM
[43]
  GI50: 4.62 µM and 0.935 µM
[44]
  GI50: 3.62 µM and 20 µM and 2.35 µM
  TGI: > 100 µM
[56]
  TGI: > 100 µM and 86.2 µM and > 5.19 µM
[45]
  GI50: 4.19 µM and 11.4 µM and 1.71 µM
  TGI: 38.4 µM and 28.7 µM and > 6.54 µM
[46]
  TGI: 74.1 µM and > 7.32 µM
[47]
  GI50: 3.71 µM and 12 µM and 2.27 µM
  TGI: 34.7 µM and 33.5 µM and > 10 µM
[49]
  GI50: 4.36 µM and 17.7 µM and > 3.64 µM
  TGI: > 100 µM
[51]
  TGI: 37.6 µM and 54.1 µM and > 6.03 µM
[52]
  TGI: > 100 µM and 73.7 µM and > 6.59 µM
[53]
  TGI: 46.2 µM and > 100 µM and > 7 µM
